Assay results from ChEMBL document CHEMBL1201862, “PubChem BioAssay data set” (2004).
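48-hour exposure; five concentrations; linearly interpolated endpoints. At the GI50, growth is halved.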 Activity calls are given as the source filed them. No stated cut-off is given here; in the data, active = GI50 up to about 1.1 µM and inactive = higher.

What was measured:
Assay in all cases: NCI-60 cell line screen, 48 h
[1] = system: ACHN
[2] = system: T47D
[3] = system: MOLT-4
[4] = system: BT-549
[5] = system: SK-MEL-2
[6] = system: HOP-62
[7] = system: HCT-116
[8] = system: SNB-19
[9] = system: MDA-N
[10] = system: SK-OV-3
[11] = system: OVCAR-8
[12] = system: KM12
[13] = system: HT-29
[14] = system: IGROV-1
[15] = system: MDA-MB-231
[16] = system: SF-539
[17] = system: OVCAR-5
[18] = system: HOP-92
[19] = system: SN12C
[20] = system: HCC 2998
[21] = system: NCI/ADR-RES
[22] = system: OVCAR-4
[23] = system: A549
[24] = system: SK-MEL-5
[25] = system: HL-60
[26] = system: CCRF-CEM
[27] = system: OVCAR-3
[28] = system: RPMI-8226
[29] = system: NCI-H23
[30] = system: SW-620
[31] = system: LOX IMVI
[32] = system: U-251
[33] = system: CAKI-1
[34] = system: M14
[35] = system: TK-10
[36] = system: RXF 393
[37] = system: PC-3
[38] = system: MCF7
[39] = system: 786-0
[40] = system: SK-MEL-28
[41] = system: UACC-62
[42] = system: UACC-257
[43] = system: SF-295
[44] = system: NCI-H460
[45] = system: HCT-15
[46] = system: A498
[47] = system: MDA-MB-435
[48] = system: EKVX
[49] = system: COLO 205
[50] = system: DU-145
[51] = system: SF-268
[52] = system: Malme-3M
[53] = system: UO-31
[54] = system: K562
[55] = system: SNB-75
[56] = system: NCI-H522
[57] = system: Hs-578T
[58] = system: SR
[59] = system: NCI-H226

Compound: CC(C)c1ccccc1SC1CC(=O)CC(Sc2ccccc2C(C)C)C12O[C@H](c1ccccc1)[C@@H](c1ccccc1)O2 (some centres undefined)
- GI50 [1]: 30.3 µM (inactive)
- GI50 [2]: 28.6 µM (inactive)
- GI50 [3]: 23.4 µM (inactive)
- GI50 [4]: 51.1 µM (inactive)
- GI50 [5]: 35.6 µM (inactive)
- GI50 [6]: > 100 µM (inactive)
- GI50 [7]: 32.7 µM (inactive)
- GI50 [8]: > 100 µM (inactive)
- GI50 [9]: 20.9 µM (inactive)
- GI50 [10]: > 100 µM (inactive)
- GI50 [11]: 35.4 µM (inactive)
- GI50 [12]: 59.6 µM (inactive)
- GI50 [13]: 58.5 µM (inactive)
- GI50 [14]: 34.1 µM (inactive)
- GI50 [15]: 34.8 µM (inactive)
- GI50 [16]: 57.1 µM (inactive)
- GI50 [17]: > 100 µM (inactive)
- GI50 [18]: 95.9 µM (inactive)
- GI50 [19]: 22.6 µM (inactive)
- GI50 [20]: 36 µM (inactive)
- GI50 [21]: 47 µM (inactive)
- GI50 [22]: 61.9 µM (inactive)
- GI50 [23]: > 100 µM (inactive)
- GI50 [24]: 35.6 µM (inactive)
- GI50 [25]: 12.3 µM (inactive)
- GI50 [26]: 13.4 µM (inactive)
- GI50 [27]: 32.2 µM (inactive)
- GI50 [28]: 17.3 µM (inactive)
- GI50 [29]: 36.8 µM (inactive)
- GI50 [30]: 39.2 µM (inactive)
- GI50 [31]: 30.1 µM (inactive)
- GI50 [32]: 20.3 µM (inactive)
- GI50 [33]: 26.3 µM (inactive)
- GI50 [34]: 21.5 µM (inactive)
- GI50 [35]: 85.9 µM (inactive)
- GI50 [36]: 19.9 µM (inactive)
- GI50 [37]: 58.9 µM (inactive)
- GI50 [38]: 34 µM (inactive)
- GI50 [39]: 18.1 µM (inactive)
- GI50 [40]: 38.5 µM (inactive)
- GI50 [41]: 28.4 µM (inactive)
- GI50 [42]: > 100 µM (inactive)
- GI50 [43]: > 100 µM (inactive)
- GI50 [44]: > 100 µM (inactive)
- GI50 [45]: 31.7 µM
- GI50 [46]: > 100 µM (inactive)
- GI50 [47]: 22.6 µM (inactive)
- GI50 [48]: > 100 µM (inactive)
- GI50 [49]: 71.6 µM (inactive)
- GI50 [50]: 76.2 µM (inactive)

Compound: OC1(c2ccccc2)CC2CCC(C1)N2CCCC(O)(c1ccccc1)c1ccccc1 (centres undefined)
- GI50 [1]: 17.2 µM (inactive)
- GI50 [51]: 13.4 µM (inactive)
- GI50 [2]: 21.3 µM (inactive)
- GI50 [3]: 7.45 µM (inactive)
- GI50 [4]: 13 µM (inactive)
- GI50 [5]: 20.3 µM (inactive)
- GI50 [6]: 15.5 µM (inactive)
- GI50 [7]: 14.6 µM (inactive)
- GI50 [8]: 20.7 µM (inactive)
- GI50 [52]: 15.9 µM (inactive)
- GI50 [10]: 13.8 µM (inactive)
- GI50 [11]: 19.2 µM (inactive)
- GI50 [12]: 15.3 µM (inactive)
- GI50 [53]: 7.55 µM (inactive)
- GI50 [13]: 2.78 µM (inactive)
- GI50 [54]: 4.99 µM (inactive)
- GI50 [14]: 7.98 µM (inactive)
- GI50 [15]: 18.9 µM (inactive)
- GI50 [16]: 4.54 µM (inactive)
- GI50 [55]: 11.2 µM (inactive)
- GI50 [17]: 25.8 µM (inactive)
- GI50 [18]: 5.62 µM (inactive)
- GI50 [19]: 16.7 µM (inactive)
- GI50 [20]: 2.14 µM (inactive)
- GI50 [21]: 17.7 µM (inactive)
- GI50 [22]: 33.8 µM (inactive)
- GI50 [23]: 17.1 µM (inactive)
- GI50 [24]: 3.2 µM (inactive)
- GI50 [25]: 22.9 µM (inactive)
- GI50 [26]: 4.33 µM (inactive)
- GI50 [27]: 16.4 µM (inactive)
- GI50 [28]: 2.28 µM (inactive)
- GI50 [56]: 10.2 µM (inactive)
- GI50 [57]: 4.83 µM (inactive)
- GI50 [29]: 11.9 µM (inactive)
- GI50 [30]: 7.33 µM (inactive)
- GI50 [31]: 10.6 µM (inactive)
- GI50 [32]: 15.1 µM (inactive)
- GI50 [33]: 14 µM (inactive)
- GI50 [34]: 16.4 µM (inactive)
- GI50 [35]: 12.7 µM (inactive)
- GI50 [36]: 11.9 µM (inactive)
- GI50 [37]: 3.44 µM (inactive)
- GI50 [38]: 16.1 µM (inactive)
- GI50 [39]: 12.5 µM (inactive)
- GI50 [40]: 17.7 µM (inactive)
- GI50 [41]: 14.3 µM (inactive)
- GI50 [42]: 2 µM (inactive)
- GI50 [58]: 11.8 µM (inactive)
- GI50 [43]: 3.33 µM (inactive)
- GI50 [44]: 2.2 µM (inactive)
- GI50 [45]: 14.2 µM
- GI50 [46]: 15.5 µM (inactive)
- GI50 [47]: 12 µM (inactive)
- GI50 [48]: 16.5 µM (inactive)
- GI50 [49]: 10.5 µM (inactive)
- GI50 [59]: 12.4 µM (inactive)
- GI50 [50]: 21.4 µM (inactive)

Compound: NC(=O)C(=CN1CC(=O)NC1=S)C(N)=O
- GI50 [1]: > 100 µM (inactive)
- GI50 [51]: > 100 µM (inactive)
- GI50 [2]: > 100 µM (inactive)
- GI50 [3]: > 100 µM (inactive)
- GI50 [4]: > 100 µM (inactive)
- GI50 [5]: > 100 µM (inactive)
- GI50 [6]: > 100 µM (inactive)
- GI50 [7]: > 100 µM (inactive)
- GI50 [8]: > 100 µM (inactive)
- GI50 [9]: > 100 µM (inactive)
- GI50 [10]: > 100 µM (inactive)
- GI50 [11]: > 100 µM (inactive)
- GI50 [12]: > 100 µM (inactive)
- GI50 [53]: > 100 µM (inactive)
- GI50 [13]: > 100 µM (inactive)
- GI50 [14]: > 100 µM (inactive)
- GI50 [15]: > 100 µM (inactive)
- GI50 [16]: > 100 µM (inactive)
- GI50 [55]: > 100 µM (inactive)
- GI50 [17]: > 100 µM (inactive)
- GI50 [18]: > 100 µM (inactive)
- GI50 [19]: > 100 µM (inactive)
- GI50 [20]: > 100 µM (inactive)
- GI50 [21]: > 100 µM (inactive)
- GI50 [22]: > 100 µM (inactive)
- GI50 [23]: > 100 µM (inactive)
- GI50 [24]: > 100 µM (inactive)
- GI50 [25]: > 100 µM (inactive)
- GI50 [27]: > 100 µM (inactive)
- GI50 [29]: > 100 µM (inactive)
- GI50 [30]: > 100 µM (inactive)
- GI50 [31]: > 100 µM (inactive)
- GI50 [32]: > 100 µM (inactive)
- GI50 [33]: > 100 µM (inactive)
- GI50 [34]: > 100 µM (inactive)
- GI50 [35]: > 100 µM (inactive)
- GI50 [36]: > 100 µM (inactive)
- GI50 [38]: > 100 µM (inactive)
- GI50 [39]: > 100 µM (inactive)
- GI50 [40]: > 100 µM (inactive)
- GI50 [41]: > 100 µM (inactive)
- GI50 [42]: > 100 µM (inactive)
- GI50 [43]: > 100 µM (inactive)
- GI50 [44]: > 100 µM (inactive)
- GI50 [45]: > 100 µM
- GI50 [46]: > 100 µM (inactive)
- GI50 [47]: > 100 µM (inactive)
- GI50 [48]: > 100 µM (inactive)
- GI50 [49]: > 100 µM (inactive)
- GI50 [59]: > 100 µM (inactive)
- GI50 [50]: > 100 µM (inactive)
